Patent publication US20230096766A1, “AMINO ACID HAVING FUNCTIONAL GROUP CAPABLE OF INTERMOLECULAR HYDROGEN BONDING, PEPTIDE COMPOUND CONTAINING SAME AND METHOD FOR PRODUCTION THEREOF” (Chugai Seiyaku Kabushiki Kaisha, priority 2018, published 2023)
*1 amine or outer side, *2 acyl side, *3 side chain or, on linkers, in order; H or OH if unused. Where a SMILES comes first, the peptide text is derived from it. Bridges are numbered along the chain shown (N, C = ends). [ ]: non-standard residue; d: D form. The star is where a group is joined. ξ: configuration not given here. dhPhe(4-CONHMe,3-OMe) = CNC(=O)c1ccc(CC[C@@H](N)C(=O)O)cc1OC; X19 = CC(C)C[C@H](NN(C)[C@H](Cc1ccccc1)N(C)[*:1])C(=O)[*:2]; Phe(3-OMe,4-CONHMe) = CNC(=O)c1ccc(C[C@H](N)C(=O)O)cc1OC; X17 = CC(C)C[C@@H](C(=O)[*:2])C(C)C(=O)CCCN(C)[*:1]; Phe(4-CF3) = N[C@@H](Cc1ccc(C(F)(F)F)cc1)C(=O)O; NMePhe(3-Cl) = CN[C@@H](Cc1cccc(Cl)c1)C(=O)O; ξGln(SO2Me) = CS(=O)(=O)NC(=O)CCC(N)C(=O)O; Tyr(3-OMe) = COc1cc(C[C@H](N)C(=O)O)ccc1O; NMeW = CN[C@@H](Cc1c[nH]c2ccccc12)C(=O)O; NMehPhe = CN[C@@H](CCc1ccccc1)C(=O)O; X7 = O=C(C[C@H](COCCO)N[*:1])[*:2]; NMeF = CN[C@@H](Cc1ccccc1)C(=O)O; NMeGABA = CN(CCCC(=O)[*:2])[*:1]; NMeI = CC[C@H](C)[C@H](NC)C(=O)O; Butyl(3-Me,3-OH) = CC(C)(O)CC*; CH2CH(OH)CF3 = OC(C*)C(F)(F)F; CH2CONHtBu = CC(C)(C)NC(=O)C*; NMeL = CN[C@@H](CC(C)C)C(=O)O; Thr(3ξ) = CC(O)[C@H](N)C(=O)O; NMeV = CN[C@H](C(=O)O)C(C)C; NMeAbu = CC[C@H](NC)C(=O)O; NMeA = CN[C@@H](C)C(=O)O; Piperidide = C1CCN(*)CC1; X8 = C1COC[C@@H](C*)N1; Me2NCH2CH2 = CN(C)CC*; NBuGly = CCCCNCC(=O)O; Isopentyl = CC(C)CC*; NPrGly = CCCNCC(=O)O; X3 = C[C@H](O)C*; Sar = CNCC(=O)O; tBu = CC(C)(C)*

Test: in vitro
Conditions: human, Caco-2, Caco-2

Compound	Papp
CCCCN1CC(=O)N(C)[C@@H](CC(C)C)C(=O)N[C@@H](COC(C)(C)C)C(=O)N(C)[C@@H](Cc2ccccc2)C(=O)N(C)[C@@H](C(C)C)C(=O)N[C@H](C(=O)N2CCCCC2)CC(=O)N[C@H](C(C)C)C(=O)N(C)[C@@H](Cc2ccccc2)C(=O)N[C@@H](COCCN(C)C)C(=O)N(C)[C@@H](CC(C)C)C(=O)N[C@@H]([C@@H](C)O)C1=O [pd53] ([dV][NMeF]S(Me2NCH2CH2)[NMeL]T[NBuGly][NMeL]S(tBu)[NMeF][NMeV]D-Piperidide; lactam N-11)	0.14 ×10⁻⁶ cm/s
CC(C)C[C@@H]1NC(=O)[C@H](CC(C)C)C(C)C(=O)CCCN(C)C(=O)C[C@@H](C(=O)N2CCCCC2)NC(=O)[C@H](CC(C)C)N(C)C(=O)[C@H](CC(C)C)N(C)C(=O)[C@H](CC(C)C)NC(=O)[C@H](CC(C)C)N(C)C(=O)C(CCC(=O)NS(C)(=O)=O)NC(=O)[C@H](Cc2ccccc2)N(C)C(=O)[C@H](Cc2ccccc2)N(C)C1=O (stereo partly drawn) [pd68] ([X17]L[NMeF][NMeF][ξGln(SO2Me)][NMeL]L[NMeL][NMeL]D-Piperidide; lactam N-10)	0.1 ×10⁻⁶ cm/s

Same assay, conditions: human, Caco-2, Caco-2 (cm/sec)

Compound	Papp
CC[C@H](C)[C@@H]1NC(=O)[C@H](CC(C)C)N(C)C(=O)CCCN(C)C(=O)C[C@@H](C(=O)N2CCCCC2)NC(=O)[C@H](CC(C)C)N(C)C(=O)[C@H](CC(C)C)N(C)C(=O)[C@H]([C@@H](C)O)NC(=O)[C@H](CC(C)C)N(C)C(=O)[C@H](COC[C@H](C)O)NC(=O)[C@H](Cc2cccc(Cl)c2)N(C)C(=O)[C@H](Cc2ccccc2)N(C)C1=O [AP64] ([NMeGABA][NMeL]I[NMeF][NMePhe(3-Cl)]S(X3)[NMeL]T[NMeL][NMeL]D-Piperidide; lactam N-11)	0.35 ×10⁻⁶ cm/s
CCCCN1CC(=O)N(C)[C@@H](CC(C)C)C(=O)N[C@@H](COC(C)(C)C)C(=O)N(C)[C@@H]([C@@H](C)CC)C(=O)N(C)[C@@H](CC(C)C)C(=O)N[C@H](C(=O)N2CCCCC2)CC(=O)N[C@H](C)C(=O)N(C)[C@@H](Cc2ccccc2)C(=O)N[C@@H](Cc2ccc(C(=O)NC)c(OC)c2)C(=O)N(C)[C@@H](CC(C)C)C(=O)N[C@@H]([C@@H](C)O)C1=O [AP29] ([dA][NMeF][Phe(3-OMe,4-CONHMe)][NMeL]T[NBuGly][NMeL]S(tBu)[NMeI][NMeL]D-Piperidide; lactam N-11)	0.36 ×10⁻⁶ cm/s
CC[C@H](C)[C@H]1C(=O)N[C@@H](Cc2c[nH]c3ccccc23)C(=O)N(C)CC(=O)N(C)[C@@H](C)C(=O)N[C@H](C(=O)N2CCCCC2)CC(=O)N(C)[C@@H](C)C(=O)N[C@@H](CC(C)C)C(=O)N(C)[C@@H](CC(C)C)C(=O)N(C)[C@@H](CC(C)C)C(=O)N[C@@H](C)C(=O)N(C)[C@@H](CC(C)C)C(=O)N1C [pd101] ([NMeA]L[NMeL][NMeL]A[NMeL][NMeI]W[Sar][NMeA]D-Piperidide; lactam N-11)	0.13 ×10⁻⁶ cm/s
CCCCN1CC(=O)N(C)[C@@H](Cc2ccccc2)C(=O)N[C@@H](COCC(=O)NC(C)(C)C)C(=O)N(C)[C@@H](CC(C)C)C(=O)N[C@@H]([C@@H](C)O)C(=O)N(CCC)CC(=O)N(C)[C@@H](Cc2ccccc2)C(=O)N(C)[C@@H](CC(C)C)C(=O)N[C@@H](CC(C)C)C(=O)N(C)[C@@H](C)C(=O)N[C@H](C(=O)N2CCCCC2)CC1=O [AP17] ([NBuGly][NMeF]S(CH2CONHtBu)[NMeL]T[NPrGly][NMeF][NMeL]L[NMeA]D-Piperidide; lactam N-11)	0.72 ×10⁻⁶ cm/s
CCCCN1CC(=O)N(C)[C@@H](CC(C)C)C(=O)N[C@H](C(=O)N2CCCCC2)CC(=O)N(C)[C@@H](C)C(=O)N[C@@H](COC[C@@H]2COCCN2)C(=O)N(C)[C@@H](CC(C)C)C(=O)N(C)[C@@H](CC)C(=O)N[C@@H](C(C)C)C(=O)N(C)[C@@H](Cc2ccccc2)C(=O)N(C)[C@@H](CC(C)C)C(=O)N[C@@H]([C@@H](C)O)C1=O [AP243] ([NMeA]S(X8)[NMeL][NMeAbu]V[NMeF][NMeL]T[NBuGly][NMeL]D-Piperidide; lactam N-11)	0.46 ×10⁻⁶ cm/s
CC[C@H](C)[C@@H]1NC(=O)[C@H](CC(C)C)N(C)C(=O)CCCN(C)C(=O)C[C@@H](C(=O)N2CCCCC2)NC(=O)[C@H](CC(C)C)N(C)C(=O)[C@H](CC(C)C)N(C)C(=O)[C@H]([C@@H](C)O)NC(=O)[C@H](CC(C)C)N(C)C(=O)C[C@H](COCCO)NC(=O)[C@H](CC(C)C)N(C)C(=O)[C@H](Cc2cccc(Cl)c2)N(C)C1=O [AP22] ([NMeGABA][NMeL]I[NMePhe(3-Cl)][NMeL][X7][NMeL]T[NMeL][NMeL]D-Piperidide; lactam N-11)	0.23 ×10⁻⁶ cm/s
CCCCN1CC(=O)N(C)[C@@H](Cc2ccccc2)C(=O)N(C)[C@@H](CC(C)C)C(=O)N[C@@H](CC(C)C)C(=O)N(C)[C@@H](CC(C)C)C(=O)N[C@H](C(=O)N2CCCCC2)CC(=O)N(C)CC(=O)N(C)[C@@H](CC(C)C)C(=O)N[C@@H](Cc2ccc(O)cc2)C(=O)N(C)[C@@H](CC)C(=O)N[C@@H]([C@@H](C)O)C1=O [Compound F07] ([Sar][NMeL]Y[NMeAbu]T[NBuGly][NMeF][NMeL]L[NMeL]D-Piperidide; lactam N-11)	0.54 ×10⁻⁶ cm/s
COc1cc(C[C@@H]2NC(=O)[C@H](CC(C)C)N(C)C(=O)CN(C)C(=O)[C@H]([C@@H](C)O)NC(=O)[C@H](CC(C)C)N(C)C(=O)[C@H](CC(C)C)NN(C)[C@H](Cc3ccccc3)N(C)C(=O)[C@@H](C(C)C)NC(=O)C[C@@H](C(=O)N3CCCCC3)NC(=O)[C@H](CC(C)C)N(C)C(=O)[C@H](CC(C)C)N(C)C2=O)ccc1O [Compound E01] ([dV][X19][NMeL]T[Sar][NMeL][Tyr(3-OMe)][NMeL][NMeL]D-Piperidide; lactam N-10)	1.1 ×10⁻⁶ cm/s
CC(C)CCOC[C@@H]1NC(=O)[C@H](Cc2ccccc2)N(C)C(=O)[C@H](Cc2ccccc2)N(C)C(=O)[C@H](COCCC(C)(C)O)NC(=O)[C@H](CC(C)C)N(C)C(=O)CCCN(C)C(=O)C[C@@H](C(=O)N2CCCCC2)NC(=O)[C@H](CC(C)C)N(C)C(=O)[C@H](CC(C)C)N(C)C(=O)[C@H]([C@@H](C)O)NC(=O)[C@H](C(C)C)N(C)C1=O [AP53] ([NMeGABA][NMeL]S(Butyl(3-Me,3-OH))[NMeF][NMeF]S(Isopentyl)[NMeV]T[NMeL][NMeL]D-Piperidide; lactam N-11)	0.74 ×10⁻⁶ cm/s
CCCCN1CC(=O)N(C)[C@@H](CC(C)C)C(=O)N[C@@H](COCC(=O)NC(C)(C)C)C(=O)N(C)[C@@H](CCc2ccccc2)C(=O)N(C)[C@@H](C)C(=O)N[C@H](C(=O)N2CCCCC2)CC(=O)N[C@H](CC(C)C)C(=O)N(C)[C@@H](CC(C)C)C(=O)N[C@@H](Cc2ccccc2)C(=O)N(C)[C@@H](CC(C)C)C(=O)N[C@@H](C(C)O)C1=O (stereo partly drawn) [AP12] ([dL][NMeL]F[NMeL][Thr(3ξ)][NBuGly][NMeL]S(CH2CONHtBu)[NMehPhe][NMeA]D-Piperidide; lactam N-11)	0.17 ×10⁻⁶ cm/s
CCCCN1CC(=O)N(C)[C@@H](Cc2ccccc2)C(=O)N(C)[C@@H](CC(C)C)C(=O)N[C@@H](CC(C)C)C(=O)N(C)[C@@H](CC(C)C)C(=O)N[C@H](C(=O)N2CCCCC2)CC(=O)N(C)CC(=O)N(C)[C@@H](CC)C(=O)N[C@@H](C(C)C)C(=O)N(C)[C@@H](CC)C(=O)N[C@@H](COC[C@@H]2COCCN2)C1=O [AP247] ([Sar][NMeAbu]V[NMeAbu]S(X8)[NBuGly][NMeF][NMeL]L[NMeL]D-Piperidide; lactam N-11)	0.69 ×10⁻⁶ cm/s
CNC(=O)c1ccc(CC[C@H]2NC(=O)[C@H](CC(C)C)N(C)C(=O)CCCN(C)C(=O)C[C@@H](C(=O)N3CCCCC3)NC(=O)[C@H](CC(C)C)N(C)C(=O)[C@H](CC(C)C)N(C)C(=O)[C@H]([C@@H](C)O)NC(=O)[C@H](CC(C)C)N(C)C(=O)[C@H](COC(C)(C)C)NC(=O)[C@H](Cc3ccccc3)N(C)C(=O)[C@H](CC(C)C)N(C)C2=O)cc1OC [AP211] ([NMeGABA][NMeL][dhPhe(4-CONHMe,3-OMe)][NMeL][NMeF]S(tBu)[NMeL]T[NMeL][NMeL]D-Piperidide; lactam N-11)	0.36 ×10⁻⁶ cm/s
CC(C)CCOC[C@@H]1NC(=O)[C@H](Cc2cccc(Cl)c2)N(C)C(=O)[C@H](Cc2ccccc2)N(C)C(=O)[C@H](COC[C@H](C)O)NC(=O)[C@H](CC(C)C)N(C)C(=O)CCCN(C)C(=O)C[C@@H](C(=O)N2CCCCC2)NC(=O)[C@H](CC(C)C)N(C)C(=O)[C@H](CC(C)C)N(C)C(=O)[C@H]([C@@H](C)O)NC(=O)[C@H](CC(C)C)N(C)C1=O [AP63] ([NMeGABA][NMeL]S(X3)[NMeF][NMePhe(3-Cl)]S(Isopentyl)[NMeL]T[NMeL][NMeL]D-Piperidide; lactam N-11)	0.14 ×10⁻⁶ cm/s
CC(C)C[C@@H]1NC(=O)[C@H](Cc2c[nH]c3ccccc23)N(C)C(=O)[C@@H](C(C)C)NC(=O)C[C@@H](C(=O)N2CCCCC2)NC(=O)[C@H](CC(C)C)N(C)C(=O)[C@H](CC(C)C)N(C)C(=O)[C@H](COC(C)(C)C)NC(=O)[C@H](CC(C)C)N(C)C(=O)CN(C)C(=O)[C@H]([C@@H](C)O)NC(=O)[C@H](CC(C)C)N(C)C1=O [pd106] ([dV][NMeW]L[NMeL]T[Sar][NMeL]S(tBu)[NMeL][NMeL]D-Piperidide; lactam N-11)	0.36 ×10⁻⁶ cm/s

Same assay, conditions: human, Caco-2, Caco-2 (membrane permeability)

Compound	Papp
CCCCN1CC(=O)N(C)[C@@H](CC(C)C)C(=O)N[C@@H](CCC(=O)NC)C(=O)N(C)[C@@H](Cc2ccccc2)C(=O)N(C)[C@@H]([C@@H](C)CC)C(=O)N[C@H](C(=O)N2CCCCC2)CC(=O)N[C@H](CC(C)C)C(=O)N(C)[C@@H](CC(C)C)C(=O)N[C@@H](Cc2ccc(C(F)(F)F)cc2)C(=O)N(C)[C@@H](CC(C)C)C(=O)N[C@@H]([C@@H](C)O)C1=O [Compound J02] ([dL][NMeL][Phe(4-CF3)][NMeL]T[NBuGly][NMeL]E(NHMe)[NMeF][NMeI]D-Piperidide; lactam N-11)	0.004 ×10⁻⁶ cm/s
CC[C@H](C)[C@H]1C(=O)N[C@@H]([C@@H](C)O)C(=O)N(C)CC(=O)N(C)[C@@H](CC(C)C)C(=O)N[C@H](C(=O)N2CCCCC2)CC(=O)N(C)[C@@H](C(C)C)C(=O)N[C@@H](COCC(O)C(F)(F)F)C(=O)N(C)[C@@H](CC(C)C)C(=O)N(C)[C@@H](Cc2ccccc2)C(=O)N[C@@H](CC(C)C)C(=O)N(C)[C@@H](Cc2ccccc2)C(=O)N1C (stereo partly drawn) [Compound C08] ([NMeV]S(CH2CH(OH)CF3)[NMeL][NMeF]L[NMeF][NMeI]T[Sar][NMeL]D-Piperidide; lactam N-11)	0.6 ×10⁻⁶ cm/s
